Results published in patent US20230141600A1, “IMIDAZOPYRAZINE DERIVATIVES” (priority 2020, published 2023).
Structures can show the parent of a compound that is named as a salt. Where two headings read alike, the source gives them in different places.

Test system: Acinetobacter baumannii ATCC17961
Test: 90% growth inhibitory concentration (IC90) determination, antimicrobial susceptibility testing
Type: cell-based
Conditions: Acinetobacter baumannii, ATCC17961, 16 h, read-out: ATCC 17961 IC90
Method: Antimicrobial Susceptibility Testing:
90% Growth Inhibitory Concentration (IC90) Determination
The in vitro antimicrobial activity of the compounds was determined according to the following procedure:
The assay used a 10-points Iso-Sensitest broth medium to measure quantitatively the in vitro activity of the compounds against Acinetobacter baumannii ATCC17961 and ATCC17978.
Stock compounds in DMSO were serially twofold diluted (e.g. range from 50 to 0.097 μM final concentration) in 384 wells microtiter plates and inoculated with 49 μl the bacterial suspension in Iso-Sensitest medium to have a final cell concentration of ˜5×10^(5) CFU/ml in a final volume/well of 50 ul/well. Microtiter plates were incubated at 35±2° C.
Bacterial cell growth was determined with the measurement of optical density at λ=600 nm each minutes over a time course of 16 h. Growth inhibition was calculated during the logarithmic growth of the bacterial cells with determination of the concentration inhibiting 50% (IC50) and 90% (IC90) of the growth.
Table 2 provides the 90% growth inhibitory concentrations (IC90) in micromoles per liter of the compounds of present invention obtained against the strain Acinetobacter baumannii ATCC17961.

[1] = 90% growth inhibition, Iso-Sensitest broth, OD 600 nm over 16 h, 35±2° C.

IC90 [1] [nM] | Compound | IC90 [nM]
63.5 | CCc1cc(Nc2nccn3c(-c4ccc(OC(F)F)c(F)c4F)cnc23)ccc1C(=O)N1CCN(C(=O)C2CC[N+](C)(CC(N)=O)CC2)CC1 (centres unmarked) [Example 9, 1-(2-amino-2-oxoethyl)-4-(4-(4-((3-(4-(difluoromethoxy)-2,3-difluorophenyl)imidazo[1,2-a]pyrazin-8-yl)amino)-2-ethylbenzoyl)piperazine-1-carbonyl)-1-methylpiperidin-1-ium Formate] | –
169 | CCc1cc(Nc2nccn3c(-c4ccc(OC)c(F)c4F)cnc23)ccc1C(=O)NCC1CC[N+](CCO)(CC2CNC2)CC1 (centres unmarked) [Example 141, N-[[1-(Azetidin-3-ylmethyl)-1-(2-hydroxyethyl)piperidin-1-ium-4-yl]methyl]-4-[[3-(2,3-difluoro-4-methoxy-phenyl)imidazo[1,2-a]pyrazin-8-yl]amino]-2-ethyl-benzamide 2,2,2-trifluoroacetate] | –
1590 | C[N+](C)(C)CCN[C@H]1C[C@@H](NC(=O)c2ccc(Nc3nccn4c(-c5c[nH]nc5C(F)(F)F)cnc34)cc2Cl)C1 [Example 108, 2-[[3-[[2-chloro-4-[[3-[3-(trifluoromethyl)-1H-pyrazol-4-yl]imidazo[1,2-a]pyrazin-8-yl]amino]benzoyl]amino]cyclobutyl]amino]ethyl-trimethyl-ammonium Formate] | –
77.9 | C[N+]1(CC2CCNC2)CCC(C(=O)N2CCN(C(=O)c3ccc(Nc4nccn5c(-c6ccc(OC(F)F)c(F)c6F)cnc45)cc3F)CC2)CC1 (centres unmarked) [Example 103, [4-[[3-[4-(Difluoromethoxy)-2,3-difluoro-phenyl]imidazo[1,2-a]pyrazin-8-yl]amino]-2-fluoro-phenyl]-[4-[1-methyl-1-(pyrrolidin-3-ylmethyl)piperidin-1-ium-4-carbonyl]piperazin-1-yl]methanone 2,2,2-trifluoroacetate] | –
– | CCc1cc(Nc2nccn3c(-c4ccc(OC(F)F)c(F)c4F)cnc23)ccc1C(=O)NCCC1C[N+](C)(CC2CNC2)C1 (centres unmarked) [Example 90, N-[2-[1-(azetidin-3-ylmethyl)-1-methyl-azetidin-1-ium-3-yl]ethyl]-4-[[3-[4-(difluoromethoxy)-2,3-difluoro-phenyl]imidazo[1,2-a]pyrazin-8-yl]amino]-2-ethyl-benzamide Diformate] | 320
44.5 | COc1ccc(-c2cnc3c(Nc4ccc(C(=O)N[C@@H]5CCN(C(=O)C[N+](C)(C)C)C5)c(C)c4)nccn23)c(F)c1F [Example 70, (R)-2-(3-(4-((3-(2,3-difluoro-4-methoxyphenyl)imidazo[1,2-a]pyrazin-8-yl)amino)-2-methylbenzamido)pyrrolidin-1-yl)-N,N,N-trimethyl-2-oxoethan-1-aminium Chloride] | –
65.8 | CCOC(=O)C[N+](C)(C)CCOCCNC(=O)c1ccc(Nc2nccn3c(-c4ccc(OC)c(F)c4F)cnc23)cc1CC [Example 75, N-(2-(2-(4-((3-(2,3-Difluoro-4-methoxyphenyl)imidazo[1,2-a]pyrazin-8-yl)amino)-2-ethylbenzamido)ethoxy)ethyl)-2-ethoxy-N,N-dimethyl-2-oxoethan-1-aminium Formate] | –
95.9 | CCc1cc(Nc2nccn3c(-c4ccc(OC(F)F)c(F)c4F)cnc23)ccc1C(=O)NCC1C2C[N+](C)(CC3CNC3)CC12 (centres unmarked) [Example 80, N-[[3-(azetidin-3-ylmethyl)-3-methyl-3-azoniabicyclo[3.1.1]hexan-6-yl]methyl]-4-[[3-[4-(difluoromethoxy)-2,3-difluoro-phenyl]imidazo[1,2-a]pyrazin-8-yl]amino]-2-ethyl-benzamide bis(2,2,2-trifluoroacetate)] | –
449 | C[N+](C)(C)CC(=O)N1CCN(C(=O)c2ccc(Nc3nccn4c(-c5c[nH]nc5C(F)(F)F)cnc34)cc2Cl)CC1 [Example 62, [2-[4-[2-Chloro-4-[[3-[3-(trifluoromethyl)-1H-pyrazol-4-yl]imidazo[1,2-a]pyrazin-8-yl]amino]benzoyl]piperazin-1-yl]-2-oxo-ethyl]-trimethyl-ammonium Formate] | –
909 | CCc1cc(Nc2nccn3c(-c4ccc(OC(F)F)c(F)c4F)cnc23)ccc1C(=O)N1CCN(C(=O)C2CC[N+](C)(CC3CNC3)CC2)CC1C(=O)OC (centres unmarked) [Example 93, Methyl 4-[1-(azetidin-3-ylmethyl)-1-methyl-piperidin-1-ium-4-carbonyl]-1-[4-[[3-[4-(difluoromethoxy)-2,3-difluoro-phenyl]imidazo[1,2-a]pyrazin-8-yl]amino]-2-ethyl-benzoyl]piperazine-2-carboxylate bis(2,2,2-trifluoroacetate)] | –
57.2 | COc1ccc(-c2cnc3c(Nc4ccc(C(=O)N[C@H]5C[C@@H](NCC[N+](C)(C)C)C5)c(Cl)c4)nccn23)c(F)c1F [Example 66, 2-[[3-[[2-Chloro-4-[[3-(2,3-difluoro-4-methoxy-phenyl)imidazo[1,2-a]pyrazin-8-yl]amino]benzoyl]amino]cyclobutyl]amino]ethyl-trimethyl-ammonium Formate] | –
336 | COc1ccc(-c2cnc3c(Nc4cc(C)c(C(=O)NCCOCC[N+](C)(C)C)c(F)c4)nccn23)c(F)c1F [Example 18, 2-(2-(4-((3-(2,3-Difluoro-4-methoxyphenyl)imidazo[1,2-a]pyrazin-8-yl)amino)-2-fluoro-6-methylbenzamido)ethoxy)-N,N,N-trimethylethan-1-aminium Hydrogen Carbonate] | –
205 | CCc1cc(Nc2nccn3c(-c4ccc(OC)c(F)c4F)cnc23)ccc1C(=O)NCC1CC[N+](C)(CC(=O)O)CC1 (centres unmarked) [Example 115, 2-[4-[[[4-[[3-(2,3-Difluoro-4-methoxy-phenyl)imidazo[1,2-a]pyrazin-8-yl]amino]-2-ethyl-benzoyl]amino]methyl]-1-methyl-piperidin-1-ium-1-yl]acetic acid 2,2,2-trifluoroacetate] | –
2480 | CCc1cc(Nc2nccn3c(-c4cn(CC(F)F)nc4C(F)(F)F)cnc23)ccc1C(=O)NCCCCC[N+](C)(C)CC(=O)O [Example 113, Carboxymethyl-[5-[[4-[[3-[1-(2,2-difluoroethyl)-3-(trifluoromethyl)pyrazol-4-yl]imidazo[1,2-a]pyrazin-8-yl]amino]-2-ethyl-benzoyl]amino]pentyl]-dimethyl-ammonium Formate] | –
171 | CCc1cc(Nc2nccn3c(-c4ccc(OC(F)F)c(F)c4F)cnc23)ccc1C(=O)NCCCCC[N+](C)(C)CC1CNC1 [Example 96, Azetidin-3-ylmethyl-[5-[[4-[[3-[4-(difluoromethoxy)-2,3-difluoro-phenyl]imidazo[1,2-a]pyrazin-8-yl]amino]-2-ethyl-benzoyl]amino]pentyl]-dimethyl-ammonium bis(2,2,2-trifluoroacetate)] | –
343 | CCc1cc(Nc2nccn3c(-c4ccc(OC)c(F)c4F)cnc23)ccc1C(=O)NCC1CC[N+](CC(=O)O)(CC2CNC2)CC1 (centres unmarked) [Example 128, 2-[1-(Azetidin-3-ylmethyl)-4-[[[4-[[3-(2,3-difluoro-4-methoxy-phenyl)imidazo[1,2-a]pyrazin-8-yl]amino]-2-ethyl-benzoyl]amino]methyl]piperidin-1-ium-1-yl]acetic acid bis(2,2,2-trifluoroacetate)] | –

Compound | IC90 [1] [nM] | IC90 [nM]
CCc1cc(Nc2nccn3c(-c4ccc(OC(F)F)c(F)c4F)cnc23)ccc1C(=O)NCCC1CC[N+](C)(CC2CNC2)CC1 (centres unmarked) [Example 10, N-[2-[1-(azetidin-3-ylmethyl)-1-methyl-piperidin-1-ium-4-yl]ethyl]-4-[[3-[4-(difluoromethoxy)-2,3-difluoro-phenyl]imidazo[1,2-a]pyrazin-8-yl]amino]-2-ethyl-benzamide Diformate] | 157 | –
